US20220362386A1, “LIQUID COMPOSITIONS COMPRISING A LEVODOPA AMINO ACID CONJUGATE AND USES THEREOF” (NeuroDerm, Ltd., priority 2019, published 2022)
Structures can show the parent of a compound that is named as a salt. Where two headings read alike, the source gives them in different places. Non-standard residues stand in square brackets, D forms with d. Residues, ends and D or L forms follow the SMILES beside them. Dopa = N[C@@H](Cc1ccc(O)c(O)c1)C(=O)O

How the values were obtained:
physchem = format: physicochemical; conditions: for solubility thermodynamic: read-out: LD-Lys TFA salt concentration
Protocol: The volume of the solution in the bottle was adjusted to 5 ml, either by adding solvent, or be removing any residual solution, after which the bottle was tightly closed and left at 25° C. for stability observation. It is noted that throughout Example 4, the concentrations in the tables below were calculated taking into account the amount of solvent added or the solution removed, in which event, the calculations were performed regarding the 5 ml+(amount removed) as the volume of the solution. It is further noted that throughout this document, unless mentioned otherwise, the stability was measured using the manual visual inspection Bosch apparatus MIH DX, at a magnification of ×1.75.
The LD-Tyr free base, prepared according to Example 2, was added to a solvent, as detailed in Table 7 below, and neutralized by addition of NaOH. When maximum solubility was observed, the solution was filtered and then transferred to a bottle that was previously weighed and flushed with nitrogen. The volume of the solution in the bottle was adjusted to 5 ml, after which the bottle was tightly closed and left at 25° C. for stability observation.
When maximum solubility was observed, the solution was filtered and then transferred to a bottle that was previously weighed and flushed with nitrogen. The volume of the solution in the bottle was adjusted to 5 ml, after which the bottle was tightly closed and left at 25° C. for stability observation.
(§1) When maximum solubility was observed, the solution was filtered and then transferred to a bottle that was previously weighed and flushed with nitrogen. The volume of the solution in the bottle was adjusted to 5 ml, after which the bottle was tightly closed and stored at 25° C. for stability observation.
as §1
LD-Lys TFA salt, prepared according to Example 1, and which comprises two equivalents of TFA, was added to a solvent, as detailed in Table 11 below, and neutralized by addition of NaOH. When maximum solubility was observed, the solution was filtered and then transferred to a bottle that was previously weighed and flushed with nitrogen. The volume of the solution in the bottle was adjusted to 5 ml, after which the bottle was tightly closed and stored at 25° C. for stability observation.
As detailed above regarding other solutions, with the LD-Tyr free base when maximum solubility was observed, the solution was filtered and then transferred to a bottle that was previously weighed and flushed with nitrogen. The volume of the solution in the bottle was adjusted to 5 ml, after which the bottle was tightly closed and left at 25° C. for stability observation.
LD-Lys HCl salt, prepared according to Example 3, was added to a solvent, as detailed in Table 13 below, and neutralized by the addition of NaOH. When maximum solubility was observed, the solution was filtered and then transferred to a bottle that was previously weighed and flushed with nitrogen. The volume of the solution in the bottle was adjusted to 5 ml, after which the bottle was tightly closed and left at 25° C. for stability observation.

[1] = Analytical stability of LD-Tyr/CD formulations by HPLC (Tables 42-45c); conditions: for % retention, t = 1 week / Analytical stability result (HPLC), t = 1 week / % retention, t = 2 weeks / Analytical stability result (HPLC), t = 2 weeks: NB 144-4 formulation; for Analytical stability result (HPLC), t = 1 week / Analytical stability result (HPLC), t = 2 weeks: in mg/mL (unit assumed)
[2] = 0 weeks
[3] = solvent 0.1% NaBis in WFI, pH 1.8
[4] = solvent 0.1% NaBis in WFI, pH 6.92
[5] = solvent 0.1% NaBis in WFI, pH 6.99
[6] = solvent 0.1% NaBis in WFI, pH 7.06
[7] = solvent […] CD solution, pH 8.48
[8] = solvent 0.75% CD solution, pH 6.5, precipitated
[9] = solvent 0.75% CD solution, pH 7.4 (line r20)
[10] = solvent 0.75% CD solution, pH 7.4, precipitated (line r14)
[11] = solvent […] CD solution, pH 8.36
[12] = NB 144-32 (F1), 37% LD-Tyr/0.5% CD
[13] = NB 144-34 (F2), 44% LD-Tyr/0.5% CD
[14] = NB 144-39 (F3), 30% LD-Tyr/0.5% CD
[15] = solvent DMSO:(0.1% NaBis in WFI) (70:30), pH 5.40
[16] = solvent NMP:(0.1% NaBis in WFI) (70:30), pH 4.62
[17] = solvent […] CD solution in WFI, pH 8.35 (titer/NaOH)

For N=C(N)NCCC[C@H](NC(=O)[C@@H](N)Cc1ccc(O)c(O)c1)C(=O)O [LD-Arg TFA salt, Levodopa Arginine TFA Salt], the Appearance (physchem; 0.1% NaBis in WFI, pH 1.8, 610 mg/ml salt) was “clear”, the Appearance (physchem; 0.1% NaBis in WFI, pH 6.92, 200 mg/ml salt) was “clear” and the Appearance (physchem; 0.1% NaBis in WFI, pH 6.99, 420 mg/ml salt) was “clear”. The Appearance (physchem; 0.1% NaBis in WFI, pH 7.06, 200 mg/ml salt) was “clear”, the Appearance (physchem; WFI, pH 1.7, 600 mg/ml salt) was “clear” and the Appearance (physchem; WFI, pH 7.2, 200 mg/ml salt) was “clear”. The Appearance (physchem; WFI, pH 7.2, 420 mg/ml salt) was “clear”, the Appearance (physchem; […] CD solution, pH 8.48, 180 mg/ml salt) was “clear” and the “LD-Arg TFA salt concentration” value (physchem; [3]) was 610 mg/mL. For the same compound, the “LD-Arg free base Concentration” value (physchem; [3]) was 370 mg/mL, the “LD-Arg TFA salt concentration” value (physchem; [4]) was 200 mg/mL and the “LD-Arg free base Concentration” value (physchem; [4]) was 120 mg/mL. The “LD-Arg TFA salt concentration” value (physchem; [5]) was 420 mg/mL, the “LD-Arg free base Concentration” value (physchem; [5]) was 260 mg/mL and the “LD-Arg TFA salt concentration” value (physchem; [6]) was 200 mg/mL. For the same compound, the “LD-Arg free base Concentration” value (physchem; [6]) was 120 mg/mL, the “LD-Arg TFA salt concentration” value (physchem; solvent WFI, pH 1.7) was 600 mg/mL and the “LD-Arg free base Concentration” value (physchem; solvent WFI, pH 1.7) was 370 mg/mL. For the same compound, the “LD-Arg TFA salt concentration” value (physchem; solvent WFI, pH 7.2 (line r9)) was 420 mg/mL, the “LD-Arg free base Concentration” value (physchem; solvent WFI, pH 7.2 (line r9)) was 260 mg/mL and the “LD-Arg TFA salt concentration” value (physchem; solvent WFI, pH 7.2 (line r17)) was 200 mg/mL. For the same compound, the “LD-Arg free base Concentration” value (physchem; solvent WFI, pH 7.2 (line r17)) was 120 mg/mL, the “LD-Arg TFA salt concentration” value (physchem; [7]) was 180 mg/mL and the “LD-Arg free base Concentration” value (physchem; [7]) was 110 mg/mL.

With NCCCC[C@H](NC(=O)[C@@H](N)Cc1ccc(O)c(O)c1)C(=O)O [LD-Lys TFA salt, Levodopa Lysine TFA Salt] (H-[Dopa]-Lys-OH) the Appearance (physchem; 0.1% NaBis in WFI, pH 7.0, 520 mg/ml salt) was “clear”, the Appearance (physchem; 0.75% CD solution, pH 6.5, 250 mg/ml salt) was “precipitated” and the Appearance (physchem; 0.75% CD solution, pH 7.4, 205 mg/ml salt) was “clear”. For the same compound, the Appearance (physchem; 0.75% CD solution, pH 7.4, 250 mg/ml salt) was “precipitated”, the solubility thermodynamic (physchem; 25 °C, aqueous buffer, thermodynamic from solid, solvent 0.1% NaBis in WFI, pH 7.0) was 520 mg/mL and the solubility thermodynamic (physchem; 25 °C, water, thermodynamic from solid, solvent WFI, pH 1.86) was 770 mg/mL. For the same compound, the Appearance (physchem; WFI, pH 1.86, 770 mg/ml salt) was “clear”, the Appearance (physchem; WFI, pH 7.1, 600 mg/ml salt) was “clear” and the Appearance (physchem; […] CD solution, pH 8.36, 180 mg/ml salt) was “clear”. The “LD-Lys free base Concentration” value (physchem; solvent 0.1% NaBis in WFI, pH 7.0) was 310 mg/mL, the “LD-Lys TFA salt concentration” value (physchem; [8]) was 250 mg/mL and the “LD-Lys free base Concentration” value (physchem; [8]) was 150 mg/mL. The “LD-Lys TFA salt concentration” value (physchem; [9]) was 205 mg/mL, the “LD-Lys free base Concentration” value (physchem; [9]) was 120 mg/mL and the “LD-Lys TFA salt concentration” value (physchem; [10]) was 250 mg/mL. The “LD-Lys free base Concentration” value (physchem; [10]) was 150 mg/mL, the “LD-Lys free base Concentration” value (physchem; solvent WFI, pH 1.86) was 450 mg/mL and the “LD-Lys TFA salt concentration” value (physchem; solvent WFI, pH 7.1) was 600 mg/mL. The “LD-Lys free base Concentration” value (physchem; solvent WFI, pH 7.1) was 350 mg/mL, the “LD-Lys TFA salt concentration” value (physchem; [11]) was 180 mg/mL and the “LD-Lys free base Concentration” value (physchem; [11]) was 110 mg/mL.

With N[C@@H](Cc1ccc(O)c(O)c1)C(=O)N[C@@H](Cc1ccc(O)cc1)C(=O)O [LD-Tyr TFA salt, Levodopa Tyrosine TFA Salt] (H-[Dopa]-Tyr-OH) the “% retention, t = 1 week” value ([1]; Storage temp. 2-8° C.) was 98.8%, the “Analytical stability result (HPLC), t = 1 week” value ([1]; Storage temp. 2-8° C.) was 323.22 and the “% retention, t = 2 weeks” value ([1]; Storage temp. 2-8° C.) was 99.7%. The “Analytical stability result (HPLC), t = 2 weeks” value ([1]; Storage temp. 2-8° C.) was 326.20, the “% retention, t = 1 week” value ([1]; Storage temp. 25° C.) was 101.1% and the “Analytical stability result (HPLC), t = 1 week” value ([1]; Storage temp. 25° C.) was 330.81. The “% retention, t = 2 weeks” value ([1]; Storage temp. 25° C.) was 97.3%, the “Analytical stability result (HPLC), t = 2 weeks” value ([1]; Storage temp. 25° C.) was 318.15 and the “% retention, t = 1 week” value ([1]; Storage temp. 40° C.) was 93.0%. The “Analytical stability result (HPLC), t = 1 week” value ([1]; Storage temp. 40° C.) was 304.24, the “Concentration (HPLC), t = 0” value [1, 12] was 364.15 and the “Concentration (HPLC), t = 28 h at 32° C.” value [1, 12] was 352.22. The “Concentration (HPLC), t = 0” value [1, 13] was 437.98, the “Concentration (HPLC), t = 28 h at 32° C.” value [1, 13] was 424.09 and the “Concentration (HPLC), t = 0” value [1, 14] was 295.42. The “Concentration (HPLC), t = 28 h at 32° C.” value [1, 14] was 291.94, the “Analytical stability result (HPLC), t = 0” value [2] was 327.05 and the Appearance (physchem; 0.1% sodium bisulfite (Na Bis) in WFI, pH 7.22 (titer/NaOH), 205 mg/ml salt, TFA Salt) was “precipitated”. For the same compound, the solubility (physchem; 0.1% sodium bisulfite in WFI, 25 °C, aqueous buffer, thermodynamic from solid, solvent 0.1% sodium bisulfite (Na Bis) in WFI, pH 7.22 (titer/NaOH), precipitated during titration) was at most 205 mg/mL, the Appearance (physchem; DMSO:(0.1% NaBis in WFI) (70:30), pH 5.40, 200 mg/ml salt) was “clear” and the Appearance (physchem; DMSO, 184 mg/ml salt) was “clear”. For the same compound, the Appearance (physchem; NMP:(0.1% NaBis in WFI) (70:30), pH 4.62, 200 mg/ml salt) was “clear”, the Appearance (physchem; NMP, 200 mg/ml salt) was “Clear” and the Appearance (physchem; WFI, pH ~2, 210 mg/ml salt) was “clear”. For the same compound, the Appearance (physchem; […] CD solution in WFI, pH 8.35, 178 mg/ml salt) was “clear”, the “LD-Tyr free base Concentration” value (physchem; solvent 0.1% sodium bisulfite (Na Bis) in WFI, pH 7.22 (titer/NaOH), precipitated during titration) was 160 mg/mL and the “LD-Tyr TFA salt concentration” value (physchem; solvent DMSO) was 184 mg/mL. The “LD-Tyr free base Concentration” value (physchem; solvent DMSO) was 140 mg/mL, the “LD-Tyr TFA salt concentration” value (physchem; [15]) was 200 mg/mL and the “LD-Tyr free base Concentration” value (physchem; [15]) was 150 mg/mL. The “LD-Tyr TFA salt concentration” value (physchem; solvent NMP) was 200 mg/mL, the “LD-Tyr free base Concentration” value (physchem; solvent NMP) was 150 mg/mL and the “LD-Tyr TFA salt concentration” value (physchem; [16]) was 200 mg/mL. For the same compound, the “LD-Tyr free base Concentration” value (physchem; [16]) was 150 mg/mL, the “LD-Tyr TFA salt concentration” value (physchem; solvent Water for injection (WFI), pH ~2) was 210 mg/mL and the “LD-Tyr free base Concentration” value (physchem; solvent Water for irrigation (WFI), pH ~2) was 160 mg/mL. The “LD-Tyr TFA salt concentration” value (physchem; [17]) was 178 mg/mL and the “LD-Tyr free base Concentration” value (physchem; [17]) was 135 mg/mL.
